“Also recorded” adds a separate entry of the source.
How the values were obtained:
[1] = tested on: IFNE1 mRNA in HCT116 cells; assay: QRT-PCR of IFNE1 transcript level in HCT116 cells treated with CDK and non-CDK inhibitors; assay type: cell-based, human; conditions: 6 hours, P276-00 250 nM, Flavopiridol 200 nM, Fascaplysin 500 nM, Roscovitine 20 μM, Olomoucine 180 μM, DRB 50 μM, 5-Fluorouracil 800 nM, Camptothecin 30 nM, Etoposide 3 μM, Vinblastin 1.5 μM, Quercitin 750 nM, Paclitaxel 600 nM, Doxorubicin 100 nM
Experimental: HCT116 cells were treated with various CDK inhibitors [P276-00 (250 nM), Flavopiridol (200 nM), Fascaplysin (500 nM), Roscovitine (20 μM), Olomoucine (180 μM), 5,6-dichloro-1-beta-D-ribofuranosylbenzimidazole (DRB, 50 μM)] and non-CDK inhibitors [5-Fluorouracil (800 nM), Camptothecin (30 nM), Etoposide (3 μM), Vinblastin (1.5 μM), Quercitin (750 nM), Paclitaxel (600 nM), Doxorubicin (100 nM)] for 6 hours. The level of IFNE1 mRNA was estimated using Real Time RT-PCR. Using Actin gene for normalization, relative IFNE1 expression level was plotted as log fold change.
To study if IFNE1 expression is a result of CDK inhibition, HCT116 cells were treated with a variety of CDK and non-CDK inhibitors and IFNE1 transcript level were measured using quantitative QRT-PCR. HCT116 cells were chosen for this assay because IFNE1 level seems to be most regulated in this cell line. The cells were treated with a variety of CDK inhibitors [P276-00 (250 nM), Flavopiridol (200 nM), Fascaplysin (500 nM), Roscovitine (20 μM), Olomoucine (180 μM), 5,6-dichloro-1-beta-D-ribofuranosylbenzimidazole (DRB) (50 μM)] and non-CDK inhibitors [5-Fluorouracil (800 nM), Camptothecin (30 nM), Etoposide (3 μM), Vinblastin (1.5 μM), Quercitin (750 nM), Paclitaxel (600 nM), Doxorubicin (100 nM)] for 6 hours and the IFNE1 transcript level were estimated. All inhibitors were purchased from Sigma and used at IC50 values described in literature.

[2] = tested on: IFNE1 mRNA in Calu-1 cells; assay: QRT-PCR of IFNE1 level in Calu-1 cells treated with P276-00 or Flavopiridol; assay type: cell-based, human; conditions: at most time points (4, 8, 12, 24, 48 hours)
Experimental: (§1) FIGS. 3A, 3B and 3C show expression of IFNE1 in different cancer cell lines treated with P276-00 and Flavopiridol. The different cell lines were treated with the agent for the indicated times and the level of IFNE1 mRNA were estimated using Real Time RT-PCR. Using the Actin gene for normalization, IFNE1 expression level was plotted as log fold change relative to the signal from the control untreated cells.
(§2) The expression of IFNE1 in response to P276-00 or Flavopiridol was also studied in different cancer cell lines such as HCT116, HL-60 (leukemia) and Calu-1. HCT116, Calu-1, H460 and HL-60 cells were obtained from ATCC and were maintained in culture medium with 10% fetal bovine serum. P276-00 and Flavopiridol were synthesized in-house and 10 mM stocks in DMSO were used for the assays. HCT116 (FIG. 3A) cells in culture were treated with P276-00 and Flavopiridol at 200 nM and 250 nM respectively for 6 hours, 12 hours and 24 hours. HL-60 (FIG. 3B) cells were treated with 300 nM of P276-00 and […] of Flavopiridol for 3 hours, 6 hours, 12 hours and 24 hours and Calu-1 (FIG. 3C) cells were treated with 1.2 μM of P276-00 and 450 nM of Flavopiridol for 4 hours, 8 hours, 12 hours, 24 hours and 48 hours. RNA was prepared from the samples and QRT-PCR was performed to estimate level of IFNE1.

[3] = tested on: IFNE1 gene expression in HCT116 xenografts; assay: Real Time Quantitative Reverse Transcriptase PCR of IFNE1 in HCT116 xenografts; assay type: in vivo, SCID mice; conditions: normalized to actin
Experimental: (§3) Colon carcinoma (HCT-116) cells were injected into severe combined immunodeficient (SCID) mice intraperitoneally. Xenografts were allowed to grow, typically for 7 days until the tumors reached a size of 5×5 mm before therapeutic agent administration. A total of 56 animals were used for the study. Animals that were treated with two consecutive day administrations of the agent/vehicle were considered as the acute treated group. The acute treated group of animals consisted of 8 sham treated, 10 Flavopiridol (2.5 mg/kg) treated, and P276-00 (35 mg/kg) treated mice. A similar group of animals was treated with either vehicle or agent for 6-7 days consecutively and was considered as the chronic treated group, as discussed below. The differences in the concentrations used reflect the differences in the IC50 values of the two therapeutic agents.
(§4) At the end of the acute/chronic treatments, the xenografts were excised from the animals and RNA was prepared using Trizol reagent (Sigma, USA) as per the manufacturer's protocol. Briefly, xenograft tissues were homogenized under liquid nitrogen and resuspended in Trizol ([…] tissue) followed by chloroform extraction. The RNA was precipitated in isopropanol and the pellet was washed using 70% ethanol. RNA samples thus obtained were resuspended in RNase-DNase free water. Quality and quantity of RNA was measured by spectrometry using ND-1000 spectrometer (Nanodrop, Wilmington, Del., USA).
IFNE1 expression in tumor tissues, after exposure to P276-00 or Flavopiridol, was further validated by RTQ-PCR. The primer sequences used for PCR analysis are as follows:
The actin (ACTB) gene is used as control for relative quantification, and the following primer sequences were used for its PCR analysis:
An aliquot of the RNA samples used for the microarray study was also used for Quantitative Real Time Reverse TRasncriptase PCR (QRT-PCR) analysis. […]

[4] = tested on: IFNE1 mRNA in HL-60 cells; assay: QRT-PCR of IFNE1 level in HL-60 cells treated with P276-00 or Flavopiridol; assay type: cell-based, human; conditions: at most time points (3, 6, 12, 24 hours)
Experimental: as §1, §2

[5] = tested on: IFNE1 mRNA in HCT116 cells; assay: QRT-PCR of IFNE1 level in HCT116 cells treated with P276-00 or Flavopiridol; assay type: cell-based, human; conditions: for IFNE1 level relative to control untreated cells: at most time points (6, 12, 24 hours)
Experimental: as §1, §2

[6] = tested on: IFNE1 gene in HCT116 xenografts; assay: Oligonucleotide microarray expression profiling of IFNE1 in HCT116 xenografts treated with P276-00 or Flavopiridol; assay type: in vivo, SCID mice
Experimental: as §3, §4
To account for variability in gene expression in the xenografts before agent treatments, RNA samples from the respective control groups were pooled proportionally. Each of the P276/FP acute treated xenograft was, therefore, compared with pooled acute control RNA samples and the same method was adopted for the chronically treated samples. For microarray hybridization, a total of 20 μg of RNA was used for cDNA synthesis, which was indirectly labeled with Cy3 (pooled control) or Cy5 (individual treated xenograft) fluorescent dyes as described (Chinnaiyan AM et. al., Am J. Pathol. 2001 October; 159(4): 1199-209). A 23,290 oligonucleotide array (Illumina, USA) was spotted using the OmniGrid™ Genemachines. The slides were processed by standard procedures and hybridization was performed in the two-channel mode. Post hybridization, the slides were washed and scanned using GeneTAC UC-4 and images obtained were analyzed using the GenePix Pro 5.1. The median of ratios of intensities (Cy5/Cy3) obtained from the two channels was subjected to Cluster analysis and viewed using the Treeview program. Median of ratios above 2 is considered as significant upregulation of the specific gene in the drug treated xenograft and a value below 0.5 is considered as downregulation of the specific gene in the drug treated xenograft.
A total of 16 hybridizations representing 10 acute treatments (FIG. 1A) and 6 chronic treatments (FIG. 1B) were analyzed. Individual hybridizations were numbered according to acute (A) or chronic (C) treatment followed by the animal number and the respective agent used. For example, A20 (P276) identifies acute treated xenograft with P276-00 in the animal numbered 20.
The values represent the log of median of ratio for IFNE1 gene across different xenografts treated with either P276-00 or Flavopiridol. As mentioned before, a ratio value above 1 indicates a two-fold increase in the gene levels. The Cluster analysis identifies upregulation of IFNE1 consistently across both acute (Table 1A) and chronic (Table 1B) treatments of HCT116 xenografts.

## CC[C@]1(O)C[C@@H]2CN(CCc3c([nH]c4ccccc34)[C@@](C(=O)OC)(c3cc4c(cc3OC)N(C)[C@H]3[C@@](O)(C(=O)OC)[C@H](OC(C)=O)[C@]5(CC)C=CCN6CC[C@]43[C@@H]65)C2)C1 [Vinblastin]
[1]
  change of IFNE1 mRNA level: do not cause a change

## CN1CC[C@@H](c2c(O)cc(O)c3c(=O)cc(-c4ccccc4Cl)oc23)[C@@H]1CO.Cl [Compound P276-00, (+)-trans-2-(2-Chloro-phenyl)-5,7-dihydroxy-8-(2-hydroxymethyl-1-methyl-pyrrolidin-3-yl)-chromen-4-one hydrochloride]
[2]
  IFNE1 level relative to control untreated cells: significant increase
[3]; acute treatment
  xenografts with upregulated IFNE1 level by QRT-PCR: 3 of the 6
[3]; chronic treatment
  xenografts with upregulated IFNE1 level by QRT-PCR: most of the xenografts tested
[4]
  IFNE1 level relative to control untreated cells: significant increase
[5]
  IFNE1 level relative to control untreated cells: significant increase
[1]
  change of IFNE1 mRNA level: upregulation
[6]; acute treatment (two consecutive days), xenograft A20, P276-00 35 mg/kg, log base 2 of Cy5/Cy3 vs pooled control
  log of median of ratio for IFNE1 gene: 2.26
[6]; acute treatment, xenograft A2, P276-00 35 mg/kg, log base 2 vs pooled control
  log of median of ratio for IFNE1 gene: 1.107
[6]; acute treatment, xenograft A5, P276-00 35 mg/kg, log base 2 vs pooled control
  log of median of ratio for IFNE1 gene: 1.966
[6]; acute treatment, xenograft A11, P276-00 35 mg/kg, log base 2 vs pooled control
  log of median of ratio for IFNE1 gene: 2.053
[6]; acute treatment, xenograft A23, P276-00 35 mg/kg, log base 2 vs pooled control
  log of median of ratio for IFNE1 gene: 3.252
[6]; chronic treatment (6-7 days consecutively), xenograft C17, P276-00, log base 2 vs pooled control
  log of median of ratio for IFNE1 gene: 0.7715
[6]; chronic treatment, xenograft C11, P276-00, log base 2 vs pooled control
  log of median of ratio for IFNE1 gene: 1.318
[6]; chronic treatment, xenograft C23, P276-00, log base 2 vs pooled control
  log of median of ratio for IFNE1 gene: 1.326

## CC(=O)O[C@H]1C(=O)[C@@]2(C)[C@H]([C@H](OC(=O)c3ccccc3)[C@]3(O)C[C@H](OC(=O)[C@H](O)[C@@H](NC(=O)c4ccccc4)c4ccccc4)C(C)=C1C3(C)C)[C@]1(OC(C)=O)CO[C@@H]1C[C@@H]2O [Paclitaxel]
[1]
  change of IFNE1 mRNA level: do not cause a change

## O=c1[nH]cc(F)c(=O)[nH]1 [5-Fluorouracil]
[1]
  change of IFNE1 mRNA level: do not cause a change

## COc1cc([C@@H]2c3cc4c(cc3[C@@H](O[C@@H]3O[C@@H]5CO[C@@H](C)O[C@H]5[C@H](O)[C@H]3O)[C@H]3COC(=O)[C@H]23)OCO4)cc(OC)c1O [Etoposide]
[1]
  change of IFNE1 mRNA level: do not cause a change

## O=C1c2ccccc2-[n+]2ccc3c([nH]c4ccccc43)c21 [Fascaplysin]
[1]
  change of IFNE1 mRNA level: upregulation

## CC[C@H](CO)Nc1nc(NCc2ccccc2)c2ncn(C(C)C)c2n1 [Roscovitine]
[1]
  change of IFNE1 mRNA level: upregulation; also recorded: potentiated IFNE1 level maximally

## CN1CC[C@H](c2c(O)cc(O)c3c(=O)cc(-c4ccccc4Cl)oc23)[C@H](O)C1 [Flavopiridol]
[2]
  IFNE1 level relative to control untreated cells: significant increase
[3]; acute or chronic not distinguished
  xenografts with IFNE1 up-regulation by QRT-PCR: most of the xenografts tested
[4]
  IFNE1 level relative to control untreated cells: significant increase
[5]; 12 hours, normalized to Actin
  IFNE1 up-regulation, log fold change relative to control untreated cells: up to 7 log fold changes
[5]
  IFNE1 level relative to control untreated cells: significant increase
[1]
  change of IFNE1 mRNA level: upregulation
[6]; acute treatment, xenograft A3, Flavopiridol 2.5 mg/kg, log base 2 vs pooled control
  log of median of ratio for IFNE1 gene: 2.017
[6]; acute treatment, xenograft A6, Flavopiridol 2.5 mg/kg, log base 2 vs pooled control
  log of median of ratio for IFNE1 gene: 1.121
[6]; acute treatment, xenograft A9, Flavopiridol 2.5 mg/kg, log base 2 vs pooled control
  log of median of ratio for IFNE1 gene: 1.568
[6]; acute treatment, xenograft A15, Flavopiridol 2.5 mg/kg, log base 2 vs pooled control
  log of median of ratio for IFNE1 gene: 1.228
[6]; acute treatment, xenograft A22, Flavopiridol 2.5 mg/kg, log base 2 vs pooled control
  log of median of ratio for IFNE1 gene: 1.17
[6]; chronic treatment, xenograft C6, Flavopiridol, log base 2 vs pooled control
  log of median of ratio for IFNE1 gene: 2.731
[6]; chronic treatment, xenograft C9, Flavopiridol, log base 2 vs pooled control
  log of median of ratio for IFNE1 gene: 1.723
[6]; chronic treatment, xenograft C15, Flavopiridol, log base 2 vs pooled control
  log of median of ratio for IFNE1 gene: 1.595

## CC[C@@]1(O)C(=O)OCc2c1cc1n(c2=O)Cc2cc3ccccc3nc2-1 [Camptothecin]
[1]
  change of IFNE1 mRNA level: do not cause a change

## O=c1c(O)c(-c2ccc(O)c(O)c2)oc2cc(O)cc(O)c12 [Quercitin]
[1]
  change of IFNE1 mRNA level: do not cause a change

## COc1cccc2c1C(=O)c1c(O)c3c(c(O)c1C2=O)C[C@@](O)(C(=O)CO)C[C@@H]3O[C@H]1C[C@H](N)[C@H](O)[C@H](C)O1 [Doxorubicin]
[1]
  change of IFNE1 mRNA level: do not cause a change

## OC[C@H]1O[C@@H](n2cnc3cc(Cl)c(Cl)cc32)[C@H](O)[C@@H]1O [DRB, 5,6-dichloro-1-beta-D-ribofuranosylbenzimidazole]
[1]
  change of IFNE1 mRNA level: upregulation

From patent US20110151469A1, “INTERFERON EPSILON (IFNE1) AS A MARKER FOR TARGETED CANCER THERAPY” (PIRAMAL LIFE SCIENCES LIMITED, priority 2008, published 2011)
